Key:
[1] = target: T1, NHE3 (Homo sapiens, UniProt P48764); assay: Cell-based assay of NHE-3 activity (persistent inhibition), human; details: human Persistence, 60 min incubation then washout
T1 construct: expressed in transfected cells
T1 sequence (P48764 26-834): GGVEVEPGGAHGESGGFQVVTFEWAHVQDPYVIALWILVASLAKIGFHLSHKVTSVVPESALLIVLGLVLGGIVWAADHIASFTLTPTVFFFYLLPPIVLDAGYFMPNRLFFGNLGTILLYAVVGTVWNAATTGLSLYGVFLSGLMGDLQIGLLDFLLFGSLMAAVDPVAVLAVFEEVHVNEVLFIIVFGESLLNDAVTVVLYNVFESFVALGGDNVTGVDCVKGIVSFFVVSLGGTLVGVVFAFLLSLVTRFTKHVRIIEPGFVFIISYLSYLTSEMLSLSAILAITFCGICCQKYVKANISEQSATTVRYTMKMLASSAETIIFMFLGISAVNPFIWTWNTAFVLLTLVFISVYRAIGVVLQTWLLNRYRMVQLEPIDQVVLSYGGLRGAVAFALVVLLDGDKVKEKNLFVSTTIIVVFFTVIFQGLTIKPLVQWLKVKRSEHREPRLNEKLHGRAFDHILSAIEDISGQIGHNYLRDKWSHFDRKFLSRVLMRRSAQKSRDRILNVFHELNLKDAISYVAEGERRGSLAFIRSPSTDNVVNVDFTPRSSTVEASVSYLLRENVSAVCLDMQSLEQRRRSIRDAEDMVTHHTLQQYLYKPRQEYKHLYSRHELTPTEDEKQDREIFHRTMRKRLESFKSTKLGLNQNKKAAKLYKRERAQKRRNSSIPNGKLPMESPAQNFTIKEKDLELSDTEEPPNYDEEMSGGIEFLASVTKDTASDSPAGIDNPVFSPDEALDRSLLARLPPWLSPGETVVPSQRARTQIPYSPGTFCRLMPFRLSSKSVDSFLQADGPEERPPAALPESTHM
T1 sequence (Q99653 2-195 partner limits assumed): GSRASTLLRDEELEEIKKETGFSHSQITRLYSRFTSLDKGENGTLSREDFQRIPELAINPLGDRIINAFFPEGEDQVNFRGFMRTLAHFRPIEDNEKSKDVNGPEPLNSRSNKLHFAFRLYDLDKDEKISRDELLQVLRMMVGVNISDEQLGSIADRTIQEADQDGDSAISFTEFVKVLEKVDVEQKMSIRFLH
Summary of the method: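 Persistent inhibition: compound (0-30 μM, 60 min, RT, NaCl-HEPES pH 7.4) removed before assay. Human NHE3/NHERF2 PS120 cells were then BCECF-loaded during NH4Cl pulse (30 min, 37 °C), acidified in Na+-free buffer, and Na+ added 10 min after washout; antiport measured as initial fluorescence-ratio change per minute.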

[2] = test system: human duodenum monolayer culture; assay: Sustained inhibition of apical acid secretion in human organoid monolayer cell cultures (duodenum); type: cell-based; details: Homo sapiens
Experimental: Basal media (BM) consisted of advanced DMEM/F12 containing 10 mM HEPES Invitrogen, 15630-080), 1:100 Glutamax (Invitrogen, 35050-061), and 1:100 penicillin/streptomycin (Invitrogen, 15140-122). Supplemented basal media (SBM) contained 1:100 N2 (Invitrogen, 17502-048), 1:50 B27 (Invitrogen, 12587-010), 1 mM N-acetylcysteine (Sigma, A9165), and 10 nM [Leu15]-gastrin I (Sigma, G9145). Growth factors used included 50 ng per mL mouse EGF (Peprotech, 315-09), 100 ng per mL mouse noggin (Peprotech, 250-38), 500 ng per mL human R-spondin 1 (R&D, 4645-RS), 100 ng per mL mouse Wnt-3a (R&D, 1324-WN), 20 μM. Y-27632 (Tocris, 1254), 10 mM nicotinamide (Sigma, N0636), 500 nM A83-01 (Tocris, 2939), 10 μM SB202190 (Tocris, 1264). Transwells were 0.4 μm pore polyester membrane 24-well Transwell inserts (Corning). Cultures were incubated at 37° C. in 5% CO2.
Each human ileum monolayer culture well was washed twice with fresh SBM on the apical side on day 6 before compound dosing. All compound stocks were 10 mM dissolved in DMSO. Each compound stock was individually mixed with fresh SBM to reach final compound concentration 1 μM and dosed only on the apical side of the monolayer (total volume 200 μl). DMSO at the equivalent concentration was used as the vehicle control. Duplicate wells were dosed for each compound. On day 8, apical media pH was measured by pH electrode, to determine the ability of example compounds to produce sustained inhibition of NHE3 activity in a human monolayer culture system by preventing proton secretion into the apical compartment.
Human duodenum organoids were cultured in WENRNAS (Wnt, EGF, noggin, R-spondin1, Nicotinamide, A83-01, SB202190) and typically grown for 7-12 days before being used to plate monolayer cultures. On day 0, organoid cultures embedded in Matrigel were treated with TrypLE Express to break organoids into small pieces and/or single cells. The cells were resuspended to 0.5×10^6 cells/mL in SBM containing WENRAY (Wnt, EGF, noggin, R-spondin1, A83-01, Y-27632). Following this step, 200 μL of cell suspension was plated into the apical side of a 24-well Transwell (100,000 cells/well) and 600 μL of SBM with WENRAY was added to the basolateral side. Duodenum cells were differentiated with ENA (EGF, noggin, A83-01) on day 3. The color of apical compartment turns from pink or orange to yellow due to the increase in NHE3 expression after differentiation.

Compound	% inhibition [1]	pIC50 [1]	inhibition at 1 µM [2]
Cc1cc(S(=O)(=O)NCCOCCOCCNC(=O)NCCCCNC(=O)NCCOCCOCCNS(=O)(=O)c2ccc(O[C@H]3c4cc(Cl)cc(C)c4C[C@@H]3N(C)C)c(C)c2)ccc1O[C@H]1c2cc(Cl)cc(C)c2C[C@@H]1N(C)C [Example 17, 3-[2-(2-[2-[(4-[[(1S,2S)-6-Chloro-2-(dimethylamino)-4-methyl-2,3-dihydro-1H-inden-1-yl]oxy]-3-methylbenzene)sulfonamido]ethoxy]ethoxy)ethyl]-1-[4-([[2-(2-[2-[(4-[[(1S,2S)-6-chloro-2-(dimethylamino)-4-methyl-2,3-dihydro-1H-inden-1-yl]oxy]-3-methylbenzene)sulfonamido]ethoxy]ethoxy)ethyl]carbamoyl]amino)butyl]urea]	C (>70%)	C (NHE3 pIC50 > 7)	50 to 70%
CN(C)[C@H]1Cc2c(Cl)cc(Cl)cc2[C@@H]1Oc1ccc(S(=O)(=O)NCCOCCOCCNC(=O)NCCCCNC(=O)NCCOCCOCCNS(=O)(=O)c2ccc(O[C@H]3c4cc(Cl)cc(Cl)c4C[C@@H]3N(C)C)c(F)c2)cc1F [Example 23, 3-[2-(2-[2-[(4-[[(1S,2S)-4,6-Dichloro-2-(dimethylamino)-2,3-dihydro-1H-inden-1-yl]oxy]-3-fluorobenzene)sulfonamido]ethoxy]ethoxy)ethyl]-1-[4-([[2-(2-[2-[(4-[[(1S,2S)-4,6-dichloro-2-(dimethylamino)-2,3-dihydro-1H-inden-1-yl]oxy]-3-fluorobenzene)sulfonamido]ethoxy]ethoxy)ethyl]carbamoyl]amino)butyl]urea; bis(trifluoroacetic acid)]	C (>70%)	C (NHE3 pIC50 > 7)	50 to 70%
Cc1cc(Cl)cc2c1C[C@H](N(C)C)[C@H]2Oc1ccc(S(=O)(=O)NCCOCCOCCNC(=O)NCCCCNC(=O)NCCOCCOCCNS(=O)(=O)c2ccc(O[C@H]3c4cc(Cl)cc(C)c4C[C@@H]3N(C)C)c(F)c2)cc1F [Example 24, 3-[2-(2-[2-[(4-[[(1S,2S)-6-Chloro-2-(dimethylamino)-4-methyl-2,3-dihydro-1H-inden-1-yl]oxy]-3-fluorobenzene)sulfonamido]ethoxy]ethoxy)ethyl]-1-[4-([[2-(2-[2-[(4-[[(1S,2S)-6-chloro-2-(dimethylamino)-4-methyl-2,3-dihydro-1H-inden-1-yl]oxy]-3-fluorobenzene)sulfonamido]ethoxy]ethoxy)ethyl]carbamoyl]amino)butyl]urea]	C (>70%)		50 to 70%
Cc1cc(S(=O)(=O)NCCOCCOCCNC(=O)NCCCCNC(=O)NCCOCCOCCNS(=O)(=O)c2ccc(O[C@H]3c4cc(Cl)cc(Cl)c4C[C@@H]3N3CCC[C@@H](N(C)C)C3)c(C)c2)ccc1O[C@H]1c2cc(Cl)cc(Cl)c2C[C@@H]1N1CCC[C@@H](N(C)C)C1 [Example 26, 3-[2-(2-[2-[(4-[[(1S,2S)-4,6-Dichloro-2-[(3R)-3-(dimethylamino)piperidin-1-yl]-2,3-dihydro-1H-inden-1-yl]oxy]-3-methylbenzene)sulfonamido]ethoxy]ethoxy)ethyl]-1-[4-([[2-(2-[2-[4-[[(1S,2S)-4,6-dichloro-2-[(3R)-3-(dimethylamino)piperidin-1-yl]-2,3-dihydro-1H-inden-1-yl]oxy]-3-methylbenzenesulfonamido]ethoxy]ethoxy)ethyl]carbamoyl]amino)butyl]urea; bis(trifluoroacetic acid)]	C (>70%)		50 to 70%
Cc1cc(Cl)cc2c1C[C@H](N1CCC[C@@H](N(C)C)C1)[C@H]2Oc1ccc(S(=O)(=O)NCCOCCOCCNC(=O)NCCCCNC(=O)NCCOCCOCCNS(=O)(=O)c2ccc(O[C@H]3c4cc(Cl)cc(C)c4C[C@@H]3N3CCC[C@@H](N(C)C)C3)cc2)cc1 [Example 28, 3-[2-(2-[2-[(4-[[(1S,2S)-6-Chloro-2-[(3R)-3-(dimethylamino)piperidin-1-yl]-4-methyl-2,3-dihydro-1H-inden-1-yl]oxy]benzene)sulfonamido]ethoxy]ethoxy)ethyl]-1-[4-([[2-(2-[2-[(4-[[(1S,2S)-6-chloro-2-[(3R)-3-(dimethylamino)piperidin-1-yl]-4-methyl-2,3-dihydro-1H-inden-1-yl]oxy]benzene)sulfonamido]ethoxy]ethoxy)ethyl]carbamoyl]amino)butyl]urea; bis(trifluoroacetic acid)]	C (>70%)	C (NHE3 pIC50 > 7)	50 to 70%
Cc1cc(S(=O)(=O)NCCOCCOCCNC(=O)NCCCCNC(=O)NCCOCCOCCNS(=O)(=O)c2ccc(O[C@H]3c4cc(Cl)cc(C)c4C[C@@H]3N3CCC[C@@H](N(C)C)C3)c(C)c2)ccc1O[C@H]1c2cc(Cl)cc(C)c2C[C@@H]1N1CCC[C@@H](N(C)C)C1 [Example 29]	C (>70%)	C (NHE3 pIC50 > 7)	> 70%
O=C(NCCCCNC(=O)NCCOCCOCCNS(=O)(=O)c1ccc(O[C@H]2c3cc(Cl)cc(Cl)c3C[C@@H]2N2CCNCC2)cc1)NCCOCCOCCNS(=O)(=O)c1ccc(O[C@H]2c3cc(Cl)cc(Cl)c3C[C@@H]2N2CCNCC2)cc1 [Example 31, 3-[2-(2-[2-[(4-[[(1S,2S)-4,6-Dichloro-2-(piperazin-1-yl)-2,3-dihydro-1H-inden-1-yl]oxy]benzene)sulfonamido]ethoxy]ethoxy)ethyl]-1-[4-([[2-(2-[2-[(4-[[(1S,2S)-4,6-dichloro-2-(piperazin-1-yl)-2,3-dihydro-1H-inden-1-yl]oxy]benzene)sulfonamido]ethoxy]ethoxy)ethyl]carbamoyl]amino)butyl]urea; bis(trifluoroacetic acid)]	C (>70%)		> 70%
Cc1cc(S(=O)(=O)NCCOCCOCCNC(=O)NCCCCNC(=O)NCCOCCOCCNS(=O)(=O)c2ccc(O[C@H]3c4cc(Cl)cc(Cl)c4C[C@@H]3N3CCNCC3)c(C)c2)ccc1O[C@H]1c2cc(Cl)cc(Cl)c2C[C@@H]1N1CCNCC1 [Example 32, 3-[2-(2-[2-[(4-[[(1S,2S)-4,6-Dichloro-2-(piperazin-1-yl)-2,3-dihydro-1H-inden-1-yl]oxy]-3-methylbenzene)sulfonamido]ethoxy]ethoxy)ethyl]-1-[4-([[2-(2-[2-[(4-[[(1S,2S)-4,6-dichloro-2-(piperazin-1-yl)-2,3-dihydro-1H-inden-1-yl]oxy]-3-methylbenzene)sulfonamido]ethoxy]ethoxy)ethyl]carbamoyl]amino)butyl]urea; bis(trifluoroacetic acid)]	C (>70%)	C (NHE3 pIC50 > 7)	> 70%

— patent publication US11242337B2, “Compounds useful for treating gastrointestinal tract disorders” (Ardelyx, Inc., priority 2017, dated 2022)
